Assay results taken from article PMC13242511, “Disrupting Notch signalling by a small molecule inhibiting dihydroorotate dehydrogenase activity” (Scientific Reports, 2026).

Experiments:
Assay type in all cases: cell-based
NOTCH1 = assay: Western blot analysis of S3-cleaved NOTCH1 (a-N1-V1744); details: for V1744 (activated N1) band intensity / V1744 normalised to beta-actin signals / V1744, DMSO as reference: Western blot quantification, Supplemental Figure 4K; for V1744, DMSO as reference: DMSO = 1
Method: Cells were washed in ice-cold PBS and incubated for 30 min on ice with RIPA cell lysis buffer (Thermofisher, cat #89900) containing protease and phosphatase inhibitors (Thermofisher, cat #78442), scraped off and homogenized using a 25G syringe, and subsequently centrifugated for 10 min at > 13,000xg. […] After electrophoresis, gels were placed directly onto a TransBlot Turbo PVDF or nitrocellulose membrane (Bio-rad, cat #1704157 and cat #1704159) and transferred using the “HIGH MW” protocol (Bio-Rad). Subsequently, membranes were blocked for 1 h at room temperature using Clear Milk Blocking Buffer (ThermoFisher, cat #37587) supplemented with 0.1% Tween20 (Sigma-Aldrich, cat #P1379). Detection of antibody binding was performed by using Clarity Western ECL-Substrate (Bio-rad, cat #1705060S). Beta-Actin protein signals were used as a loading control. Western blot membranes were in some experiments stripped after development (indicated in the figure in each respective case) by washing the membranes twice for 10 min in PBS, followed by incubation in membranes in western blot stripping buffer (ThermoFisher, cat #21059) for 30 min at room temperature and gentle agitation. Stripped membranes were washed twice with PBS and incubated for 30 min in blocking buffer before incubation with primary antibody. A list of all antibodies used in this study is provided in Supplemental Table 6. Uncropped western blot images are provided in […]. Protein expression levels of western blot bands were quantified using Fiji (V.2.16) with beta-Actin signals for normalisation (Supplemental Table 8). Uncropped western blot images are provided in Supplemental Fig. 10.

MDA-MB-231 cells = assay: Three dose response gene expression analysis (qRT-PCR); details: 0.1, 1 and 10 µM, 24 h
Method: (§1) Total RNA from cell lines was isolated using the RNeasy Mini kit (cat #74104, Qiagen), according to the manufacturer’s instructions. qRT-PCR was performed as described elsewhere[51] with some minor modifications: RNA was reverse transcribed to cDNA using iScript Reverse Transcription Supermix (cat # 1708841, Bio-rad). cDNA was then diluted 1:5 in nuclease free H20. qRT-PCR was performed on a C1000 Touch thermal cycler (Bio-rad) and gene expression was detected with SsoAdvanced Universal SYBR Green Supermix (cat # 1725274, Bio-rad). Gene expression was determined by normalizing to GAPDH mRNA expression levels and fold expression change was calculated using the ΔΔCT method (ΔΔCT = ΔCt sample − Δct control). Primers used in qPCR are shown in Supplemental Table 9.
(§2) Adherent breast cancer cells were seeded in 24-well cell culture plates (ThermoFisher, Nunc, Delta surface, cat #144530) and T-ALL cells growing in suspension (Jurkat, RPMI-8402) were seeded in non-adherent 24-well plates (ThermoFisher, Nunc, cat […]). 60.000 cells were seeded and treated with 0.1, 1 and 10 µM of each compound. […] Cells were harvested 24 h post treatment and RNA isolation and gene expression analysis (qRT-PCR) was performed as described above.

[1] = system: T-ALL cells (Jurkat, RPMI-8402); assay: as above; details: 0.1, 1 and 10 µM, 24 h; for c-MYC expression: T-ALL cell lines; for HES1 and c-MYC expression: T-ALL cells
Method: as §1, §2

Row | Compound | V1744 (activated N1) band intensity (NOTCH1) | V1744 normalised to beta-actin signals (NOTCH1) | V1744, DMSO as reference (NOTCH1) | c-MYC expression (MDA-MB-231 cells) | c-MYC expression [1] | S3-processing of Notch1ΔE (Western blot) (NOTCH1; clone A (#A1-11), Fig. 1F) | HES1 expression (MDA-MB-231 cells) | HES4 expression (MDA-MB-231 cells) | transcript levels of the Notch ligand Jagged1 (MDA-MB-231 cells) | HES1 and c-MYC expression [1]
1 | CC(C)(C)c1ccc(Oc2ccc(N)cn2)cc1 [CB-103, reference compound] | 20841.8 | 0.8 | 0.6093 | trend towards upregulation | reduced |  |  |  |  | 
2 | C[C@H](NC(=O)Cc1cc(F)cc(F)c1)C(=O)N[C@H](C(=O)OC(C)(C)C)c1ccccc1 [DAPT, reference compound] |  |  |  |  |  | almost completely abolished |  |  |  | 
3 | CC(C)(C(=O)NCC(F)(F)C(F)(F)F)C(=O)N[C@@H]1C(=O)Nc2ccccc2-c2ccccc21 [RO4929097, reference compound] | 4624.07 | 0.211 | 0.1638 | did not reduce | consistently reduced |  |  |  |  | 
4 | CCc1c(C(=O)N(C)Cc2cnn(C(C)C)c2)[nH]c2ccccc12 [compound A] | 20296.9 | 1.0 | 0.806 |  |  |  | downregulated | reduced | reduced | 
5 | Cc1ccc2[nH]c3c(c2c1)CCOC31CCN(Cc2ccccc2-c2ccccc2)CC1 [compound B] | 10802.4 | 0.6 | 0.4585 |  |  |  |  | reduced | reduced | dose-dependent downregulation
6 | COc1cccc(CNc2ccc(N3CCCCC3)cc2)c1OCc1cccs1 [compound C] | 14466.8 | 0.8 | 0.5945 | downregulation |  |  |  | upregulated |  | dose-dependent downregulation
7 | NC(=O)c1c(NC(=O)NCc2cccnc2)sc2c1CCC2 [compound D] | 30696.5 | 1.2 | 0.9101 |  |  |  | downregulated | reduced | reduced | dose-dependent downregulation
8 | Cc1nn(-c2nc3ccccc3s2)c(O)c1C1OC(=O)c2ccccc21 (stereo not drawn) [compound E] | 44303.5 | 1.9 | 1.451 |  |  |  | downregulated |  | reduced | dose-dependent downregulation
